Measured values: patent publication US20030105082A1, “Methods for improving the therapeutic response of humans having major depression and carrying the gene for apolipoprotein E4” (priority 2001, published 2003)

Columns and labels:
[1] = test system: patients 65 years of age and older with major depression; test: 8-week double-blind comparison of paroxetine and mirtazapine: Hamilton Depression Rating Scale (HDRS-17, HDRS-21); format: in vivo, human; conditions: for HDRS-21 scores, ε4 carriers compared with those without ε4: treatment x genotype interaction p=0.033; for HDRS-17 scores, ε4 carriers compared with those without ε4: treatment x genotype interaction p=0.036; for antidepressant response / onset of action, mirtazapine vs paroxetine / early antidepressant response, ε4 carriers compared with non-ε4 carriers: early weeks of treatment, summary of the example
Excerpt: Hamilton Depression Rating Scale (HDRS; 17 and 21 item versions of a structured interview) (Hamilton, M., J. Neurol. Neurosurg. Psychiatr. 23:56-62, 1960; Hamilton, M., Br. J. Soc. Clin. Psychol. 6:278-296,1967). […] In other words, a lower rating in the HDRS scale signifies less depression. In contrast, HDRS remitters, which are those patients showing the least depression, are defined as subjects who have an HDRS-17 score of less than 7 at a post-baseline visit.
(§1) All statistical analyses were performed using the SAS software package (available from SAS Institute). For clinical measures of depression (HDRS-21, HDRS-17, GDS, and CGI), analyses of covariance were performed with baseline values as the covariate, and apoE genotype ([…]4 allele carrier vs. non-carrier) and medication (mirtazapine, paroxetine) as the predictors. For remitter and responder analyses of clinical measures of depression, Cochran-Mantel-Haenszel statistics were used. For comparison of medication and genotype groups on baseline demographic measures, two-way analyses of variance were used.

[2] = test system: patients 65 years of age and older with major depression; test: 8-week double-blind comparison of paroxetine and mirtazapine: Geriatric Depression Scale (GDS); format: in vivo, human; conditions: for GDS scores, ε4 carriers compared with noncarriers / GDS scores, ε4 carriers compared with those without ε4 / 50% reduction in GDS score (GDS 50% responders), ε4 carriers compared with those without ε4: day 14; for GDS scores, ε4 carriers compared with noncarriers: mirtazapine p=0.025; for GDS scores, ε4 carriers compared with those without ε4 / 50% reduction in GDS score (GDS 50% responders), ε4 carriers compared with those without ε4 / 50% reduction in GDS score, ε4 carriers compared with noncarriers: full cohort; for GDS scores, ε4 carriers compared with those without ε4: mirtazapine p=0.021; for 50% reduction in GDS score (GDS 50% responders), ε4 carriers compared with those without ε4: mirtazapine p=0.046; for 50% reduction in GDS score, ε4 carriers compared with noncarriers: mirtazapine p<0.005
Procedure: Geriatric Depression Scale (GDS) (Yesavage, J.A. et al., J. Psychiatr. Res. 17:37-49, 1983), a self-rating scale developed specifically for rating depression in the elderly. In the GDS, a lower rating signifies less depression. GDS 50% responders are defined as subjects with a decrease on a post-baseline assessment of at least 50% as compared to baseline.
as §1

[3] = test system: patients 65 years of age and older with major depression; test: 8-week double-blind comparison of paroxetine and mirtazapine: Clinical Global Impression Scale (CGI); format: in vivo, human; conditions: day 14; for CGI scores, ε4 carriers compared with noncarriers: mirtazapine p=0.028; for CGI scores, ε4 carriers compared with those without ε4: treatment x genotype interaction p=0.029
Excerpt: Clinical Global Impression Scale (CGI) (Guy, W., ECDEU Assessment Manual for Psychopharmacology, DHEW Publication No. (ADM) 76-338, rev. 1976). The CGI scale is a global 7-point rating of the severity of the illness taking into account the preceding week (CGI-Severity) and a global 7-point rating of the clinical status of the subject since baseline (CGI-Change). A responder is defined as being “Much Improved” or “Very Much Improved”— having a CGI score of […] 2 according to CGI-Change. Thus, a higher CGI-Severity score corresponds to more severe depression whereas a higher CGI-Change score corresponds to lessened depression, or an improvement in alleviating the symptoms of depression.
as §1

[4] = test system: patients 65 years of age and older with major depression; test: 8-week double-blind comparison of paroxetine and mirtazapine: Mini Mental State Examination (MMSE), cognition; format: in vivo, human; conditions: for mean MMSE score, ε4 carriers compared with noncarriers: week 8, full cohort, paroxetine p=0.018
Procedure: (§2) A multi-center, randomized, double-blind, 8-week comparison of paroxetine and mirtazapine was performed for 246 nondemented, cognitively intact patients 65 years of age and older with major depression. All patients were genotyped at the apoE locus as discussed further below.
(§3) After an initial evaluation period, the mirtazapine patients started with a 15 mg dose per day. After two weeks of treatment (Day 14), patients' dosages were raised to 30 mg per day. […] Subjects who rate “Much Improved” or “Very Much Improved” on the CGI Scale I continued on the same dose they were receiving during the previous week.
(§4) For paroxetine, the dosing system was the same, except that the starting dosage was 20 mg per day, raised to 30 mg per day, and to a maximum of 40 mg per day.
Mini Mental State Examination (MMSE) (Folstein, M.F. et al., J. Psychiatr. Res. 12:189-198, 1975). This test represents a brief standardized method to grade cognitive mental status. The test assesses orientation, attention, immediate and short-term recall, language, and the ability to follow verbal and written commands. The lower the score, the lower the cognitive mental status.
as §1

[5] = 8-week comparison of paroxetine and mirtazapine: plasma drug concentrations by apoE genotype
Procedure: as §2, §3, §4
(§5) To screen patients for the gene, genomic DNA was extracted from EDTA-treated whole blood using the Puregene DNA extraction kit (available from Gentra Systems). ApoE genotypes were determined using restriction isotyping (restriction enzyme isoform genotyping) according to the protocol of Hixson and Vernier (J. Lipid Res. 31:545-548,1990), as set forth in Murphy, G.E. et al., Am. J. Psychiatr. 154:603-608, 1997. Genotypes were determined by two observers blind as to the clinical or neuropathological diagnosis.

[6] = 8-week comparison of paroxetine and mirtazapine: discontinuation due to adverse events by apoE genotype
Procedure: as §2, §3, §4, §5

[7] = day 14, Caucasian patients, p=0.006
[8] = day 14, patients carrying an apoE ε4 allele
[9] = day 14, patients with an apoE ε4 allele, remitter = HDRS-17 score less than 7
[10] = day 14, patients without an apoE ε4 allele

SMILES	HDRS scores, ε4 carriers compared with noncarriers ([1]; day 14, Caucasian patients)	HDRS-21 scores, ε4 carriers compared with those without ε4 ([1]; day 14, full cohort)	HDRS-17 scores, ε4 carriers compared with those without ε4 ([1]; day 14, full cohort)	HDRS-21 50% responders [1, 8]	HDRS-17 remitters [1, 9]	HDRS-21 50% responders [1, 10] [%]	antidepressant response / onset of action, mirtazapine vs paroxetine [1]	early antidepressant response, ε4 carriers compared with non-ε4 carriers [1]	GDS scores, ε4 carriers compared with noncarriers ([2]; Caucasian patients)	GDS scores, ε4 carriers compared with those without ε4 [2]	50% reduction in GDS score (GDS 50% responders), ε4 carriers compared with those without ε4 [2]	50% reduction in GDS score, ε4 carriers compared with noncarriers ([2]; day 28)	CGI scores, ε4 carriers compared with noncarriers ([3]; Caucasian patients)	CGI scores, ε4 carriers compared with those without ε4 ([3]; full cohort)	mean MMSE score, ε4 carriers compared with noncarriers [4]	number of patients who discontinued due to adverse events, ε4 carriers vs noncarriers ([6]; full cohort)	also measured
CN1CCN2c3ncccc3Cc3ccccc3C2C1 (stereo not shown) [mirtazapine, 1,2,3,4,10,14b-hexahydro-2-methylpyrazino [2,1a]pyrido[2,3-c]benzazepine]	greater improvement	significantly lower scores	significantly lower scores	48%	28%	29.4	higher rate of antidepressant response	significantly stronger	significantly lower	large decrease in GDS scores	significantly more likely	significantly more	significantly better	significantly lower scores	no effect	no significant differences	improvement in HDRS-17 scores, mirtazapine-treated vs paroxetine-treated patients ([1]; day 7, full cohort): significantly greater improvement; mean HDRS-17 scores, mirtazapine vs paroxetine [1, 7]: significantly lower; mean HDRS-21 scores, mirtazapine vs paroxetine [1, 7]: significantly lower; percentage of ε4 carriers responding to medication treatment, mirtazapine vs paroxetine ([1]; day 14, Caucasian subjects, each of 50% reduction in HDRS-17, HDRS-21, HDRS-17 remission, 50% reduction in GDS): greater; improvement in HDRS-17 scores, mirtazapine-treated vs paroxetine-treated patients ([1]; day 14, full cohort): Significantly greater improvement; improvement in HDRS-21 scores, mirtazapine-treated vs paroxetine-treated patients ([1]; day 14, full cohort): Significantly greater improvement; HDRS-17 50% responders, ε4 carriers compared with those without ε4 ([1]; day 14, p=0.049): significantly more; HDRS-17 remitters [1, 10]: 7.1%; patients showing a 50% reduction in GDS score ([2]; day 28, Caucasian patients, noncarriers): 16.9%; patients showing a 50% reduction in GDS score ([2]; day 28, Caucasian patients, ε4 carriers): 41.7%; CGI scores, mirtazapine vs paroxetine treated subjects ([3]; Caucasian patients, p=0.037): significantly better; improvement in CGI scores, mirtazapine-treated vs paroxetine-treated patients ([3]; full cohort): Significantly greater improvement; plasma drug concentrations, ε4 carriers vs non-ε4 carriers ([5]; in vivo): no differences; number of patients who discontinued due to adverse events, ε4 carriers vs noncarriers ([6]; in vivo): no significant differences
Fc1ccc([C@@H]2CCNC[C@H]2COc2ccc3c(c2)OCO3)cc1 [paroxetine]	less improvement	higher scores	higher scores	none	none	23.3	slower onset of anti-depressant action	particularly slow to respond	no effect	no significant difference	no difference	no effect of apoE genotype	no differences	higher scores	significantly lower	no significant differences	patients showing a 50% decrease in HDRS-17 score over baseline (HDRS-17 50% responders) ([1]; day 14, patients with an apoE ε4 allele): none; effect of the ε4 genotype on the number of patients showing a 50% reduction in GDS ([2]; day 28, Caucasian patients): no significant effect; MMSE score, ε4 carriers compared with those without ε4 ([4]; Caucasian subjects, trend, p=0.05): lower MMSE score; plasma drug concentrations, ε4 carriers vs non-ε4 carriers ([5]; Caucasian subjects): no differences; plasma drug concentrations, ε4 carriers vs non-ε4 carriers ([5]; full cohort): no differences; number of patients who discontinued due to adverse events, ε4 carriers vs noncarriers ([6]; Caucasian subjects): no significant differences
